Laboratory results from patent publication EP4582418A1, “CRYSTALLINE FORM OF QUINOLINE DERIVATIVE INHIBITOR, PREPARATION METHOD THEREFOR AND USE THEREOF” (TransThera Sciences (Nanjing), Inc., priority 2022, dated 2024).

Assay: Stability test under influencing factors (high temperature, high humidity, illumination)
Format: physicochemical
Method: Test substances: the crystal forms I, II, III, and IV of the methanesulfonate of the compound of formula (I) of the present disclosure.
Methodology: Appropriate amounts of samples of the crystal forms I, II, III, and IV of the methanesulfonate of the compound of formula (I) were separately left to stand open under the conditions of a high temperature (60 °C), a high humidity (RH 92.5%), and illumination (4500±500 Lux); sampling was performed on days 5, 10, and 30 to investigate changes in the appearance, purity, and crystal form of the samples.

[1] = Left to stand open at 60 °C for 5 days
[2] = Left to stand open at 60 °C for 10 days
[3] = Left to stand open at 60 °C for 30 days
[4] = Left to stand open at RH 92.5% for 5 days
[5] = Left to stand open at RH 92.5% for 10 days
[6] = Left to stand open at RH 92.5% for 30 days
[7] = Left to stand open under illumination (4500±500 Lux) for 5 days
[8] = Left to stand open under illumination (4500±500 Lux) for 10 days
[9] = Left to stand open under illumination (4500±500 Lux) for 30 days

Q: Which Appearance (0 days) does the source give for COc1cc2nccc(Oc3ccc(NC(=O)c4nn(C(C)C)cc(-c5ccc(F)cc5)c4=O)nc3)c2cc1OC [Crystal form I, N-(5-((6,7-dimethoxyquinolin-4-yl)oxy)pyridin-2-yl)-5-(4-fluorophenyl)-1-isopropyl-4-oxo-1,4-dihydropyridazine-3-carboxamide] here?
A: White or off-white solid

Q: What about the Purity (0 days) of the same compound?
A: 99.69%

Q: And the Appearance [1]?
A: White or off-white solid

Q: And the Purity [1]?
A: 99.70%

Q: And the Appearance [2]?
A: White or off-white solid

Q: And the Purity [2]?
A: 99.68%

Q: What about the Appearance [3] of the same compound?
A: White or off-white solid

Q: And the Purity [3]?
A: 99.67%

Q: And the Appearance [4]?
A: White or off-white solid

Q: What about the Purity [4] of the same compound?
A: 99.69%

Q: What about the Appearance [5] of the same compound?
A: White or off-white solid

Q: What about the Purity [5] of the same compound?
A: 99.68%

Q: And the Appearance [6]?
A: White or off-white solid

Q: What about the Purity [6] of the same compound?
A: 99.67%

Q: What about the Appearance [7] of the same compound?
A: White or off-white solid

Q: What about the Purity [7] of the same compound?
A: 99.70%

Q: And the Appearance [8]?
A: White or off-white solid

Q: What about the Purity [8] of the same compound?
A: 99.69%

Q: What about the Appearance [9] of the same compound?
A: White or off-white solid

Q: What about the Purity [9] of the same compound?
A: 99.69%

Q: What about the “changes in the appearance and purity” value (left to stand under conditions of the influencing factors for 30 days) of the same compound?
A: no significant changes
